Results from patent publication US11530244B2, “Cyclic polypeptides for PCSK9 inhibition” (priority 2018, dated 2022).
Like-named read-outs stand apart in the source and are kept apart here. Starred links: 1 amine or outer side, 2 acyl side, 3 side chain; linkers in the order of their positions; H or OH if unused. Positions of bridges follow the written chain, without caps; N, C: chain ends. Non-standard residues stand in square brackets, D forms with d. Residues, ends and D or L forms follow the SMILES beside them. Triazole bridges read from a SMILES are 1,4-linked. X14 = CCOP(=O)(OCC)C(F)(F)c1ccc(C[C@H](N[*:1])C(=O)[*:2])cc1; Phe(4-COOH) = N[C@@H](Cc1ccc(C(=O)O)cc1)C(=O)O; Trp(5-F) = N[C@@H](Cc1c[nH]c2ccc(F)cc12)C(=O)O; Trp(6-F) = N[C@@H](Cc1c[nH]c2cc(F)ccc12)C(=O)O; mXylylene(5-F) = Fc1cc(C[*:1])cc(C[*:2])c1; X17 = O=C(CCSCc1ccc(CSCCN[*:1])cc1)[*:2]; Pro(4S-NH2) = N[C@@H]1CN[C@H](C(=O)O)C1; X4 = O=C(CCSCc1cccc(CSCCN[*:1])c1)[*:2]; Orn(N3) = [N-]=[N+]=NCCC[C@H](N)C(=O)O; X23 = CC[C@@]1(C(=O)[*:2])CCCN1[*:1]; dGly(cPent) = N[C@@H](C(=O)O)C1CCCC1; mXylylene = c1cc(C[*:1])cc(C[*:2])c1; X21 = O=C(Cc1cccc(CN[*:2])c1)[*:1]; X7 = O=C(Cc1ccc(CN[*:1])cc1)[*:2]; Aad = N[C@@H](CCCC(=O)O)C(=O)O; aThr = C[C@H](O)[C@H](N)C(=O)O; hLys = NCCCCC[C@H](N)C(=O)O; αMeP = C[C@@]1(C(=O)O)CCCN1; dPra = C#CC[C@@H](N)C(=O)O; Ahx = NCCCCCC(=O)O; Mpa = O=C(O)CCS

What was measured:
[1] = molecular target: human PCSK9 / human LDLR EGFa domain interaction (Homo sapiens (Human), UniProt Q8NBP7); test: TR-FRET assay of inhibition of the PCSK9-LDLR protein-protein interaction; format: binding
In short: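 Inhibition of PCSK9 binding to the LDLR EGFa domain, each protein at 20 nM, detected by TR-FRET using streptavidin and anti-His donor/acceptor labels (5 nM). Two-hour room-temperature incubation in calcium-containing HEPES buffer.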

PCSK9 = PCSK9 (Homo sapiens (Human), UniProt Q8NBP7); test: PCSK9 Alexa FRET Standard assay (displacement of AlexaFluor647 tagged cyclic peptide Reagent A); format: binding; settings: 0.5 nM PCSK9, 20 nM AF cyclic peptide Reagent A
In short: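 TR-FRET displacement: 0.5 nM biotinylated PCSK9 with 1.25 nM Strep-Eu and 20 nM AlexaFluor-tagged cyclic peptide (final) in 50 mM HEPES pH 7.4, 0.15 M NaCl, 5 mM CaCl2, 0.01% BSA, 0.01% P20, ≥2 h at room temperature. IC50 from sigmoidal fit, converted to Ki via peptide KD; falling Eu counts flagged false positives.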

[2] = TR-FRET, 20 nM human PCSK9, 20 nM human LDLR EGFa domain, 2 hours room temperature, read-out: IC50
[3] = PCSK9 Alexa FRET Standard assay, read-out: IC50

Chain of human PCSK9 / human LDLR EGFa domain interaction (Q8NBP7 153-692): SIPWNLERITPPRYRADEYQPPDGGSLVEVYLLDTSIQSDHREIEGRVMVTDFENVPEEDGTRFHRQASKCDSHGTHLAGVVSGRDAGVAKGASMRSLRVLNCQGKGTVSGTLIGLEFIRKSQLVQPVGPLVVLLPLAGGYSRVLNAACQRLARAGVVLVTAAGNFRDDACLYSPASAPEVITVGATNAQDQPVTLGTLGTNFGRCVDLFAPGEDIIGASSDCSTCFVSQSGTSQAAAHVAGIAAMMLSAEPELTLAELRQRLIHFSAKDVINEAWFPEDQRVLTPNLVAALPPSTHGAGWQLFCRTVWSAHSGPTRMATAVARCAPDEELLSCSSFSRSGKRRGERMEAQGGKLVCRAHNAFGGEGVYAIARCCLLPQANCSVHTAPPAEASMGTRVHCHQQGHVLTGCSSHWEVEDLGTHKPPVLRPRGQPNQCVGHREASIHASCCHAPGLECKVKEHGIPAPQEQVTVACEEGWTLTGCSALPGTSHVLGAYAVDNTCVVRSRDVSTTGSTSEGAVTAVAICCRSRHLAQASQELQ
Chain of human PCSK9 / human LDLR EGFa domain interaction (Q8NBP7 31-152 partner): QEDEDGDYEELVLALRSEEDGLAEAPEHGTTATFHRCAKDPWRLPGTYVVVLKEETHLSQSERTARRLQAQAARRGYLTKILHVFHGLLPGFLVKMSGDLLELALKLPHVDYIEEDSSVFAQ
Chain of PCSK9 (Q8NBP7 153-692): as the sequence (Q8NBP7 153-692) above

Row | SMILES | IC50 [1, 2] | IC50 (PCSK9; [3]) | IC50 [1] | IC50 (PCSK9; IC50, PCSK9 Alexa FRET Standard assay)
1 | CC(C)[C@H]1NC(=O)[C@H](CCCCN)NC(=O)CCSCc2cccc(c2)CSC[C@@H](C(N)=O)NC(=O)[C@]2(C)CCCN2C(=O)[C@H](Cc2ccc(O)cc2)NC(=O)[C@H]([C@@H](C)O)NC(=O)[C@@H]2CCCN2C(=O)[C@H](Cc2c[nH]c3ccc(F)cc23)NC(=O)[C@H](Cc2c[nH]c3ccc(F)cc23)NC1=O [Compound 052] ([Mpa]K[dV][Trp(5-F)][Trp(5-F)]PTY[αMeP]C-NH2; linker 1-10 via mXylylene) | 1000 to 12100 nM | 1000 to 12100 nM |  | 
2 | CC(=O)N[C@H]1CCCn2cc(nn2)CCC[C@@H](C(N)=O)NC(=O)[C@]2(C)CCCN2C(=O)[C@H](Cc2ccc(O)cc2)NC(=O)[C@H](Cc2cnc[nH]2)NC(=O)[C@H](CC(=O)O)NC(=O)[C@H](Cc2c[nH]c3ccc(F)cc23)NC(=O)[C@H](Cc2c[nH]c3ccc(F)cc23)NC(=O)CNC(=O)[C@H](C)NC1=O [Compound 333] | 1000 to 12100 nM | 1000 to 12100 nM |  | 
3 | CCOP(=O)(OCC)C(F)(F)c1ccc(C[C@@H]2NC(=O)[C@H]([C@@H](C)O)NC(=O)[C@@H]3CCCN3C(=O)[C@H](Cc3c[nH]c4ccc(F)cc34)NC(=O)[C@H](Cc3c[nH]c4ccc(F)cc34)NC(=O)[C@@H](C)NC(=O)[C@H](CCCCN)NC(=O)CCSCc3cccc(c3)CSCCNC(=O)[C@]3(C)CCCN3C2=O)cc1 [Compound 131] (cyclo(K[dA][Trp(5-F)][Trp(5-F)]PT[X14][αMeP][X4])) |  |  | 100 to 1000 nM | 1000 to 12100 nM
4 | CO[C@@H](C)[C@@H]1NC(=O)[C@@H]2CCCN2C(=O)[C@H](Cc2c[nH]c3ccc(F)cc23)NC(=O)[C@H](Cc2c[nH]c3ccc(F)cc23)NC(=O)[C@@H](C)NC(=O)[C@H](CCCCN)NC(=O)CCSCc2cccc(c2)CSC[C@@H](C(N)=O)NC(=O)[C@]2(C)CCCN2C(=O)[C@H](Cc2ccc(O)cc2)NC1=O [Compound 053] ([Mpa]K[dA][Trp(5-F)][Trp(5-F)]P[aThr](Me)Y[αMeP]C-NH2; linker 1-10 via mXylylene) | 1000 to 12100 nM | 1000 to 12100 nM |  | 
5 | COc1ccc(C[C@@H]2NC(=O)[C@H](Cc3cnc[nH]3)NC(=O)[C@H](CC(=O)O)NC(=O)[C@H](Cc3c[nH]c4ccc(F)cc34)NC(=O)[C@H](Cc3c[nH]c4ccc(F)cc34)NC(=O)[C@@H](C)NC(=O)[C@H](NC(C)=O)CCCCNC(=O)Cc3cccc(c3)CNC(=O)C[C@@H](C(N)=O)NC(=O)[C@]3(C)CCCN3C2=O)cc1 [Compound 394] (Ac-[dK][dA][Trp(5-F)][Trp(5-F)]DHY(Me)[αMeP]D-NH2; linker 1-9 via X21) | 100 to 1000 nM | 100 to 1000 nM |  | 
6 | COc1ccc(C[C@@H]2NC(=O)[C@H](CCCC(=O)O)NC(=O)[C@@H]3C[C@H](N)CN3C(=O)[C@H](Cc3c[nH]c4ccc(F)cc34)NC(=O)[C@H](Cc3c[nH]c4ccc(F)cc34)NC(=O)[C@@H](C)NC(=O)[C@H](C)NC(=O)CCSCc3ccc(cc3)CSCCNC(=O)[C@]3(C)CCCN3C2=O)cc1 [Compound 345] (cyclo(A[dA][Trp(5-F)][Trp(5-F)][Pro(4S-NH2)][Aad]Y(Me)[αMeP][X17])) | 21000 to 50000 nM | 21000 to 50000 nM |  | 
7 | CC[C@@]12CCCN1C(=O)[C@H](Cc1ccc(O)cc1)NC(=O)[C@H](Cc1cnc[nH]1)NC(=O)[C@H](CC(=O)O)NC(=O)[C@H](Cc1c[nH]c3ccc(F)cc13)NC(=O)[C@H](Cc1c[nH]c3ccc(F)cc13)NC(=O)CNC(=O)[C@H](CCCCN)NC(=O)CCSCc1cccc(c1)CSC[C@@H](C(N)=O)NC2=O [Compound 378] ([Mpa]KG[Trp(5-F)][Trp(5-F)]DHY[X23]C-NH2; linker 1-10 via mXylylene) | 0.1 to 100 nM | 0.11 to 100 nM |  | 
8 | COc1ccc(C[C@@H]2NC(=O)[C@H](Cc3c[nH]cn3)NC(=O)[C@H](CC(=O)O)NC(=O)[C@H](Cc3c[nH]c4ccc(F)cc34)NC(=O)[C@H](Cc3c[nH]c4ccc(F)cc34)NC(=O)[C@@H](C3CCCC3)NC(=O)[C@H](CCCCN)NC(=O)CCSCc3cccc(c3)CSCCNC(=O)[C@]3(C)CCCN3C2=O)cc1 [Compound 344] (cyclo(DHY(Me)[αMeP][X4]K[dGly(cPent)][Trp(5-F)][Trp(5-F)])) | 21000 to 50000 nM | 21000 to 50000 nM |  | 
9 | COc1ccc(C[C@@H]2NC(=O)[C@H](Cc3cnc[nH]3)NC(=O)[C@H](CC(=O)O)NC(=O)[C@H](Cc3c[nH]c4ccc(F)cc34)NC(=O)[C@H](Cc3c[nH]c4ccc(F)cc34)NC(=O)[C@@H](C)NC(=O)[C@H](CCCCN)NC(=O)[C@@H](NC(C)=O)CCCc3cn(nn3)-c3ccc(cc3)C[C@@H](C(N)=O)NC(=O)[C@]3(C)CCCN3C2=O)cc1 [Compound 353] | 21000 to 50000 nM | 21000 to 50000 nM |  | 
10 | CC(=O)N[C@H]1Cc2cn(nn2)-c2ccc(cc2)C[C@@H](C(N)=O)NC(=O)[C@]2(C)CCCN2C(=O)[C@H](Cc2ccc(O)cc2)NC(=O)[C@H](Cc2cnc[nH]2)NC(=O)[C@H](CC(=O)O)NC(=O)[C@H](Cc2c[nH]c3ccc(F)cc23)NC(=O)[C@H](Cc2c[nH]c3ccc(F)cc23)NC(=O)CNC(=O)[C@H](C)NC1=O [Compound 334] | 21000 to 50000 nM | 21000 to 50000 nM |  | 
11 | COc1ccc(C[C@@H]2NC(=O)[C@H](Cc3cnc[nH]3)NC(=O)[C@H](CC(=O)O)NC(=O)[C@H](Cc3c[nH]c4ccc(F)cc34)NC(=O)[C@H](Cc3c[nH]c4ccc(F)cc34)NC(=O)[C@@H](C)NC(=O)[C@H](CCCCN)NC(=O)CCSCc3cc(F)cc(c3)CSC[C@@H](C(N)=O)NC(=O)[C@]3(C)CCCN3C2=O)cc1 [Compound 338] ([Mpa]K[dA][Trp(5-F)][Trp(5-F)]DHY(Me)[αMeP]C-NH2; linker 1-10 via mXylylene(5-F)) | 1000 to 12100 nM | 1000 to 12100 nM |  | 
12 | COc1ccc(C[C@@H]2NC(=O)[C@H](Cc3cnc[nH]3)NC(=O)[C@H](CC(=O)O)NC(=O)[C@H](Cc3c[nH]c4ccc(F)cc34)NC(=O)[C@H](Cc3c[nH]c4ccc(F)cc34)NC(=O)[C@@H](C)NC(=O)Cc3ccc(cc3)CNC(=O)C[C@@H](C(N)=O)NC(=O)[C@]3(C)CCCN3C2=O)cc1 [Compound 403] ([X7][dA][Trp(5-F)][Trp(5-F)]DHY(Me)[αMeP]D-NH2; lactam N-9) | 100 to 1000 nM | 1000 to 12100 nM |  | 
13 | C[C@@]12CCCN1C(=O)[C@H](Cc1ccc(O)cc1)NC(=O)[C@H](Cc1cnc[nH]1)NC(=O)[C@H](CC(=O)O)NC(=O)[C@H](Cc1c[nH]c3cc(F)ccc13)NC(=O)[C@H](Cc1c[nH]c3ccc(F)cc13)NC(=O)CNC(=O)CCCCCNC(=O)c1ccc(cc1)C[C@@H](C(N)=O)NC2=O [Compound 313] ([Ahx]G[Trp(5-F)][Trp(6-F)]DHY[αMeP][Phe(4-COOH)]-NH2; lactam N-9) | 1000 to 12100 nM | 1000 to 12100 nM |  | 
14 | COc1ccc(C[C@@H]2NC(=O)[C@@H]3CCCCC(=O)N[C@H]4C[C@@H](C(=O)N3)N(C4)C(=O)[C@H](Cc3c[nH]c4ccc(F)cc34)NC(=O)[C@H](Cc3c[nH]c4ccc(F)cc34)NC(=O)[C@@H](C)NC(=O)[C@H](CCCN)NC(=O)CCSCc3cccc(c3)CCSCNC(=O)[C@]3(C)CCCN3C2=O)cc1 [Compound 521] | 0.1 to 100 nM | 0.11 to 100 nM |  | 
15 | C[C@H]1NC(=O)[C@H](Cc2cnc[nH]2)NC(=O)[C@H](CC(=O)O)NC(=O)[C@H](Cc2c[nH]c3ccc(F)cc23)NC(=O)[C@H](Cc2c[nH]c3ccc(F)cc23)NC(=O)CNC(=O)[C@H](CCCCN)NC(=O)CCSCc2cccc(c2)CSC[C@@H](C(N)=O)NC(=O)[C@]2(C)CCCN2C1=O [Compound 319] ([Mpa]KG[Trp(5-F)][Trp(5-F)]DH[dA][αMeP]C-NH2; linker 1-10 via mXylylene) | 100 to 1000 nM | 1000 to 12100 nM |  | 
16 | COc1ccc(C[C@@H]2NC(=O)[C@H](Cc3cnc[nH]3)NC(=O)[C@H](CC(=O)O)NC(=O)[C@H](Cc3c[nH]c4ccc(F)cc34)NC(=O)[C@H](Cc3c[nH]c4ccc(F)cc34)NC(=O)[C@H](C)NC(=O)[C@H](NC(C)=O)CCc3cn(nn3)-c3ccc(cc3)C[C@@H](C(N)=O)NC(=O)[C@]3(C)CCCN3C2=O)cc1 [Compound 392] | 0.1 to 100 nM | 100 to 1000 nM |  | 
17 | CC(=O)N[C@@H]1Cc2cn(nn2)CCC[C@@H](C(N)=O)NC(=O)[C@]2(C)CCCN2C(=O)[C@H](Cc2ccc(O)cc2)NC(=O)[C@H](Cc2cnc[nH]2)NC(=O)[C@H](CC(=O)O)NC(=O)[C@H](Cc2c[nH]c3ccc(F)cc23)NC(=O)[C@H](Cc2c[nH]c3ccc(F)cc23)NC(=O)CNC1=O [Compound 335] (Ac-[dPra]G[Trp(5-F)][Trp(5-F)]DHY[αMeP][Orn(N3)]-NH2; triazole 1-9) | 1000 to 12100 nM | 1000 to 12100 nM |  | 
18 | COc1ccc(C[C@@H]2NC(=O)[C@H](Cc3cnc[nH]3)NC(=O)[C@H](CC(=O)O)NC(=O)[C@H](Cc3c[nH]c4ccc(F)cc34)NC(=O)[C@H](Cc3c[nH]c4ccc(F)cc34)NC(=O)[C@@H](C)NC(=O)[C@H](CCCCN)NC(=O)[C@@H](NC(C)=O)CCCCCNC(=O)c3ccc(cc3)C[C@@H](C(N)=O)NC(=O)[C@]3(C)CCCN3C2=O)cc1 [Compound 393] (Ac-[hLys]K[dA][Trp(5-F)][Trp(5-F)]DHY(Me)[αMeP][Phe(4-COOH)]-NH2; lactam 1-10) | 0.1 to 100 nM | 100 to 1000 nM |  | 
